Broadly, the IC50 is the midpoint of a concentration-inhibition curve.

Data on six compounds can be found in patent publication US20050118624A1, “Fluorescent probes for ribosomes and method of use” (Cumbre Inc., priority 2003, published 2005).

Assay [1] concerns 70S Ribosome. The assay can be described thus: Fluorescence polarization titration of probe binding affinity and kinetics. To be noted: for binding affinity compared with Probe 203 / binding kinetics compared with Probe 203: summarized in FIG. 39. Also noted: species or system E. coli.
Assay [2] has as its system 70S Ribosome. In words: Fluorescence polarization competition with Probe 203 bound to ribosomes. To be noted: for IC50: compound titrated 400 μM to 1.5 nM, ribosome 150-200% above Kd, read-out: IC50 for competing out Probe 203. The assay is classed as binding, E. coli.

As for “9-(4,4-difluoro-5,7-dimethyl-4-bora-3a,4a-diaza-s-indacene-3-propionyl)-amino-erythromycin [Probe 203]”, the “incubation time to reach binding equilibrium” value in the assay on 70S Ribosome [1] (fluorescence polarization read at various time points) is given as “greater than a half hour”. Besides, the “affinity for ribosomes compared with values reported in the literature for the parent erythromycin” value at 70S Ribosome [1] (fluorescence polarization, ribosome titration 1650 nM to 0.4 nM, buffer with 20% glycerol) was “slightly reduced affinity”. As to `CC[C@H]1OC(=O)[C@H](C)[C@@H](O[C@H]2C[C@@](C)(OC)[C@@H](O)[C@H](C)O2)[C@H](C)[C@@H](O[C@@H]2O[C@H](C)C[C@H](N(C)C)[C@H]2O)[C@](C)(O)C[C@@H](C)C(=O)[C@H](C)[C@@H](O)[C@]1(C)O` [Erythromycin], in the assay with 70S Ribosome [2], the IC50 was 0.03 µM. As for “9-benzyloxycarbonylamino-4″-Bodipy FL aminoethylcarbamate erythromycin [Probe 238]”, on 70S Ribosome [1] (fluorescence polarization), the “binding affinity compared with Probe 203” value is given as “greater affinity” and the “binding kinetics compared with Probe 203” value was “even slower kinetics”.

For “4″-Bodipy FL-aminoethylcarbamate clarithromycin [Probe 242]”, on 70S Ribosome [1] (fluorescence polarization), the “binding affinity compared with Probe 203” value was “greater affinity” and the “binding kinetics compared with Probe 203” value was “even slower kinetics”.

With `COc1ccc(C[C@H](N)C(=O)N[C@H]2[C@@H](O)[C@H](n3cnc4c(N(C)C)ncnc43)O[C@@H]2CO)cc1` [puromycin], the “competition with Probe 203” value with 70S Ribosome [2] (antibiotic binding to more distant region of the ribosome) is given as “did not show competition”.

Regarding `O=C(N[C@H](CO)[C@H](O)c1ccc([N+](=O)[O-])cc1)C(Cl)Cl` [Chloramphenicol], the IC50 with 70S Ribosome [2] was 19 µM.
